Patent US20130172324A1, “METHOD FOR TREATING CARDIOVASCULAR DISEASES USING RHO KINASE INHIBITOR COMPOUNDS” (priority 2008, published 2013)
“Also recorded” adds a separate entry of the source.

Legend:
[1] = system: ova-sensitized, ova-challenged mice; experiment: Prevention of airway hyperreactivity development, anti-inflammatory dosing paradigm (Penh); format: in vivo, mouse
LPS-challenged mice = experiment: LPS-induced neutrophilia and cytokine production assay; format: in vivo, mouse; conditions: for IL-1β levels in BALF: intratracheal administration, LPS-challenged mice, FIG. 18
Protocol: Male BALB/c mice, approximately 19 to 21 grams, were ordered from Charles River Laboratories (Raleigh, N.C.). All animals were challenged with aerosolized LPS (10 μg/ml) for 25 minutes on study day 0. LPS aerosol was generated using an Aerogen Aeroneb nebulizer and controller providing a flow of 400 μl/min and a particle size of 2-4 μm MMAD. Rolipram was administered i.p at 20 mg/kg. […] Four hours following LPS challenge, BALF was collected using a total of 3 ml of 0.9% sodium chloride containing 10% fetal calf serum. Total cell counts were determined using the Coulter Counter. For differential evaluations, BALF was centrifuged and cytospin slides prepared and stained with Hema3 stain. Manual leukocyte counts were then completed on 200 cells. The final concentration of individual leukocyte cell types per ml of BALF was determined by multiplication of the relative percentage of individual leukocytes with the total amount of cells/ml of BALF fluid. The concentration of IL-1β in the BALF samples was determined using commercially available Bio-plex kits (Bio-Rad). The analysis of cytokine levels was measured using the Bio-Plex 200 (Bio-Rad) system according to the manufacturer's instructions.

ERK1 = target: T1, ERK1 (Homo sapiens, UniProt P27361); experiment: Kinase panel screen (KinaseProfiler), ERK1; format: biochemical; conditions: 10 μM ATP
T1 construct: purchased Upstate, Millipore Bioscience Division (KinaseProfiler service)
Protocol: (§1) Compounds of Formulae I and II were examined for activity against a selected panel of kinases using the KinaseProfiler™ enzyme profiling services (Upstate, Millipore Bioscience Division). Percent kinase activity at 10 μM and 1 μM test compound and 10 μM ATP was determined against 40 wild-type recombinant human kinases according to Upstate's standard protocol: ASK1, BTK, CSK, c-RAF, GCK, GSK3β, IKKα, IKKβ, IRAK1, IRAK4, JNK1α1, JNK2α2, JNK3, ERK1, ERK2, MAPKAP-K2, MAPKAP-K3, MEK1, MKK4, MKK6, MKK7β, Mnk2, MSK1, PAK3, PDK1, PRAK, ROCK1, Rsk2, SAPK2a, SAPK2b, SAPK3, SAPK4, SRPK1, SRPK2, Syk, TAK1, TBK1, PI3-Kβ, PI3-Kγ, PI3-Kδ.

ERK2 = target: T2, ERK2 (Homo sapiens, UniProt P28482); experiment: Kinase panel screen (KinaseProfiler), ERK2; format: biochemical; conditions: 10 μM ATP
T2 construct: purchased Upstate, Millipore Bioscience Division (KinaseProfiler service)
Protocol: as §1

murine eosinophils = experiment: Eotaxin-induced murine eosinophil chemotaxis; format: cell-based, mouse; conditions: 10 nM eotaxin challenge; FIG. 1
Protocol: Bronchoalveolar lavage was collected from ovalbumin sensitized and challenged mice in a volume of 2.5 mL lavage buffer. The lavage buffer was 0.9% saline with 10% fetal bovine serum. The pooled lavages were maintained on ice until use. The murine eosinophils were isolated using MACS cell separation (Miltenyi Biotech) by depletion of B cells and T cells by positive selection following incubation with antibody conjugated magnetic beads specific for CD45-R (B220) and CD90 (Thy 1.2), which bind B cells and T cells, respectively.
Eosinophil chemotaxis was assessed using a modified Boyden Chamber (Neuroprobe, 96-well) with a 5 μm pore membrane. The ability of the tested compounds to block chemotaxis induced by a 10 nM eotaxin challenge (mouse) or 1 nM eotaxin challenge (human) during one hour incubation at 37° C. with 5% CO2 was assessed. Chemotaxis was quantified via microscopy by counting the number of migrated cells in at least 3 view fields per treatment.

human eosinophils = experiment: Eotaxin-induced human eosinophil chemotaxis; format: cell-based; conditions: 1 nM eotaxin challenge; FIG. 2
Excerpt: Peripheral blood from healthy human volunteers was collected and the PMNs separated via Ficoll-paque density centrifugation followed by hypotonic lysis of the red blood cells. Subsequently, the human eosinophils were isolated from the cell suspension via StemCell Technologies Human Eosinophil Enrichment kit (Cat. No 19256) according to the manufacturer's recommendations. Briefly, unwanted cells were specifically labeled with dextran-coated magnetic nanoparticles using bispecific Tetrameric Antibody Complexes (TAC) directed against cell surface antigens on human blood cells: […] The unwanted cells are then separated from the unlabelled eosinophils using the EasySep® magnetic isolation procedure.

rat trachea rings = experiment: Tracheal relaxation assay (carbachol precontracted rings); conditions: for Percentage of carbachol-induced contraction at 1 μM compound, Avg % / Percentage of carbachol-induced contraction at 10 μM compound, Avg %: 1 μM carbachol; for IC50: Rattus norvegicus, read-out: IC50 Avg; for Trachael Ring Contraction, %: average percentage of carbachol-induced rat tracheal ring contraction at 1 μM of test compound;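 as to all read-outs here: isometric tension of rat tracheal rings in Krebs buffer with 1 µM indomethacin, compounds added cumulatively at 30 min intervals, basal tension subtracted, fit to Hill equation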
Protocol: The effects of compounds to induce relaxation of pre-contracted rat trachealis were determined. […] Trachea were excised, cleaned of connective tissue and cut into cylindrical segments of 2-3 mm length. Two stainless steel wires were guided through the lumen of the tracheal ring. One wire was fixed in the tissue bath and the other was connected to a force transducer via surgical silk. […] Indomethacin (1 μM), a cyclooxygenase inhibitor, was added to the Krebs buffer and was present throughout the experiments. Contractile tensions were measured using an isometric force transducer (Grass Instruments) and signals were analyzed using specialized software (Chart v5.5, ADInstruments). The preparations were allowed to equilibrate at a resting tension of 0.3 to 0.5 gm prior to two challenges with 60 mM KCl to assess tissue viability. After washing, tissues were treated with 1 μM carbachol for 10 to 15 minutes to induce a contractile response. Test Compounds were added cumulatively to the bath every 30 minutes and reductions in tension were recorded. Basal tension was subtracted from all values and data were reported as a percentage of the maximal carbachol-induced contraction. Data were fit to the Hill equation using GraphPad Prism v5 software.

[2] = system: ova-sensitized, ova-challenged mice; experiment: Bronchodilator assay in ovalbumin-sensitized mice (Penh, methacholine); format: in vivo, mouse; conditions: for log10AUC (penh): bronchodilator dosing paradigm
Protocol: Male BALB/c mice were ordered from Charles River Laboratories (Raleigh, N.C.). The animals were approximately 19 to 21 grams at time of receipt. Upon arrival, the animals were randomized into groups of five males per cage and assigned to a dosing group. Animals were quarantined for 7 days under test conditions. They were observed daily for general health status and ability to adapt to the water bottles.
Animals were sensitized on day 0 and 14 of study by an intraperitoneal injection with 20 μg of ovalbumin (ova) and 2.0 mg aluminum hydroxide (alum) which initiates the development of a specific T-helper (Th) cells type 2 resulting in asthmatic animals. One group of animals received an injection of saline to use as non-asthmatic control animals. All animals were challenged with aerosolized 1% ova once daily for 25 minutes on days 28, 29, and 30 (Zosky, et al. Respiratory Research. 2004; 5:15). Aerosol challenge consists of using an Aerogen Aeroneb nebulizer and controller with a particle size of 4-6 μm mass median aerodynamic diameter (MMAD) with a distribution of 400 μl per minute. This aerosol challenge is necessary to target the Th2-driven allergic inflammation in the lower airways.
The test compounds and the control vehicle were administered to animals on the day of airway hyperreactivity evaluation 30 minutes to 1 hour before the evaluation to determine the bronchodilator effects of the compounds according to the bronchodilator dosing paradigm (FIG. 8). Compounds were administered p.o. (orally), i.p. (intraperitoneally) at 15 μMol/kg unless otherwise noted (Table 6). Alternatively, compounds were administered i.t. (intratracheally) at varying doses as shown (FIG. 9). On day 32 of the experiment, airway hyperreactivity was evaluated by placing conscious, unrestrained animals in a whole body plethysmometer (Buxco Wilmington, N.C.) and exposing them to escalating doses of nebulized methacholine, a known bronchial constrictor which acts through the muscarinic receptors of the lungs, (doses: 0.325-50 mg/ml). Exposure to the methacholine doses consisted of a 3 minute period during which a nebulizer was aerosolizing the methacholine and an additional 3 minute period following the cessation of nebulization. Over this 6 minute period, the plethysmometer monitors and generates numerical values for all parameters of the breath pattern. Enhanced pause (Penh), a unitless index of airway hyperreactivity, is derived from the expiratory side of the respiratory waveform measured via the plethysmograph and is used as an indirect measure of airway resistance and hyperreactivity. […] Following the methacholine dose response, all animals were anesthetized, bled and euthanized.
Within each experiment, a mouse was given a single compound and exposed to increasing doses of methacholine [0 (baseline), 0.375, 0.75, 1.5, 3, 6, 12, 25, 50 mg/ml]. The Penh value at each of the dose levels of methacholine represents the 6-minute average response. Change from baseline (CFB) in Penh was calculated at each methacholine dose and the area under the curve (AUC) for these CFB values was calculated using the trapezoidal rule. This same approach was applied for each mouse across multiple experiments.
For statistical analyses, a linear mixed-effects model where the response was the log 10 transformed value of AUC described above was used. Data from equal experimental conditions across experiments performed on different days were pooled for statistical analysis and data reporting. The various compounds were compared adjusting for the log 10-transformed baseline value of Penh and the chamber (1 of 10) of the plethysmometer each mouse was contained in during an experiment. A random intercept for each experiment was assumed to account for possible similarities of the results obtained from a given experiment (i.e., as a “blocking effect”). […] Computations were performed using PROC MIXED (SAS Version 9.1). […]

[3] = system: ova-sensitized, ova-challenged mice; experiment: In vivo anti-inflammatory assay in ovalbumin-sensitized mice (BALF eosinophils and cytokines); parameters: species or system mouse
Excerpt: A mouse model of asthma via ovalbumin sensitization was created as described in Example 23. The anti-inflammatory dosing paradigm (FIG. 10) was utilized to evaluate the anti-inflammatory effects of experimental compounds. The anti-inflammatory dosing paradigm consists of dosing the animals once a day starting on day 27 and finishing on either day 30 or 31 (1 hr prior to the aerosolized ovalbumin challenges on days 28 to 30) but not on day 32 when hyperreactivity evaluation occurs.
Bronchoalveolar lavage fluid (BALF) was collected by infusing 3.0 ml of saline with 10% fetal calf serum into the lungs via the trachea and then withdrawing the fluid. The total amount of cells/ml of BALF fluid was determined via manual cell count on hemocytometer. The BALF was centrifuged, supernatant removed and analyzed for cytokine concentrations as described below, and cell pellet reconstituted in 500 μL of fluid. Cytospin slides were prepared from the cell pellet using 100 μL of fluid and spinning samples for 5 minutes at 5000 rpms in a cytospin centrifuge. Following Hema3 stain, relative percentages of individual leukocytes were determined on a 200 cell count for each sample. The final concentration of individual leukocyte cell types per ml of BALF was determined by multiplication of the relative percentage of individual leukocytes with the total amount of cells/ml of BALF fluid.
The concentrations of cytokines in the BALF samples were determined using commercially available Bio-plex kits (Bio-Rad) for the detection of mouse IL-5, IL-13, and Eotaxin. The analysis of cytokine levels was measured using the Bio-Plex 200 (Bio-Rad) system according to the manufacturer's instructions.

[4] = Rat oral pharmacokinetics (plasma); format: in vivo
Protocol: Plasma (EDTA K2 anticoagulant) was collected from male, cannulated, CD Sprague Dawley rats to determine the pharmacokinetics of formulations containing compound inhibitors of Rho kinase. Each animal was dosed orally with a 4 ml/kg solution or suspension of each test compound in 10 mM acetate buffered saline, pH 4.5 at a final concentration range of 20-30 μmol/kg. Blood was collected at 0.25, 0.5, 1, 2, 4, 6, 8, and 24 hours. Plasma samples were assayed for the concentration of the test compound using an on-line, solid phase extraction LC/MS/MS analysis system.
Samples were analyzed on a QSTAR Elite, hybrid quadrupole time-of-flight mass spectrometer (Applied Biosystems, Framingham, Mass.) coupled with a Symbiosis Pharma integrated, on-line SPE-HPLC system (Spark Holland Inc., Plainsboro, N.J.). Analyst QS 2.0 software was used for instrument control, data acquisition and processing. […] Mobile Phase A consisted of 0.1% ammonium hydroxide in water and Mobile Phase B consisted of 0.1% formic acid in acetonitrile. Pharmacokinetic analyses were performed using WinNonlin software version 5.2 (Pharsight Corporation, Mountain View, Calif.).
As determined from the plasma concentration versus time curves, the time to peak and peak exposure are represented by the values Tmax and Cmax, respectively. The AUC values (nM*hr) shown were calculated as the areas under the plasma concentration versus time curves from time zero through the time of the last observable value and represent the total exposure of the compound over the course of the study. Half-life values or the amount of time required for the plasma levels of the compound to decline to half the initial value are represented as t1/2.

[5] = system: rat tracheal rings pretreated with vehicle or IL-1β and TNF-α; experiment: Effect of inflammatory cytokines on tracheal relaxation; conditions: FIG. 7
Protocol: Male Sprague-Dawley rats weighing 301-325 gm were sacrificed by asphyxiation in a CO2 chamber. Trachea were excised, cleaned of connective tissue and cut into cylindrical segments of 2-3 mm length. Tissues were treated for 18 hours at 37° C. in F12 media with penicillin-streptomycin and 0.1% BSA alone or with 10 ng/ml IL-1β and 100 ng/ml TNF-α. Tissues were then washed free of cytokines with Krebs buffer. Contractile tensions were measured using an isometric force transducer (Grass Instruments) as described for Example 3 and signals were analyzed using specialized software (Chart v5.5, ADInstruments). Tissues were treated with 300 nM carbachol for 10 to 15 minutes to induce a contractile response. Test Compounds were added cumulatively to the bath every 30 minutes and reductions in tension were recorded. Basal tension was subtracted from all values and data were reported as a percentage of the maximal carbachol-induced contraction. Data were fit to the Hill equation using GraphPad Prism v5 software.

[6] = rat, oral, 20-30 μmol/kg, plasma, mean of n = 3

T1 sequence (P27361 whole entry): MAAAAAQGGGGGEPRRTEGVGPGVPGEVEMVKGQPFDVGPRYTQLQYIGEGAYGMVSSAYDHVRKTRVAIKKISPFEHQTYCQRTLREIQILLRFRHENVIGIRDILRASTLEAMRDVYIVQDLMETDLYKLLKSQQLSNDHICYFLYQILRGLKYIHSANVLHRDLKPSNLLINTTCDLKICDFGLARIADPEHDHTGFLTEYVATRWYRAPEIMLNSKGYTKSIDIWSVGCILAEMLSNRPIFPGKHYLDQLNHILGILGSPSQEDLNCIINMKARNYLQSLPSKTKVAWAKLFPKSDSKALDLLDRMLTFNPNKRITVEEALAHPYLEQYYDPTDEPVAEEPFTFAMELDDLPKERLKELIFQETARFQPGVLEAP
T2 sequence (P28482 whole entry): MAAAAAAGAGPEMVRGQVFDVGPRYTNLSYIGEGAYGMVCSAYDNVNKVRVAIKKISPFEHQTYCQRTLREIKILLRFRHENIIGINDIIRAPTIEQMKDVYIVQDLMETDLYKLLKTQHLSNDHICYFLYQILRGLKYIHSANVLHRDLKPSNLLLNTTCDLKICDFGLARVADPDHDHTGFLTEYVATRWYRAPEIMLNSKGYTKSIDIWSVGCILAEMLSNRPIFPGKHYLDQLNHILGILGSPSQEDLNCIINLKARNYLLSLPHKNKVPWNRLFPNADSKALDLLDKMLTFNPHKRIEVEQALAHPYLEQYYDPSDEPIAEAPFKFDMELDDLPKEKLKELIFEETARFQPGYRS

NC(=O)Cn1ccc2cc(CN3CC[C@@H](Nc4cccc5cnccc45)C3)ccc21 [Compound 2.059, (R)-2-(5-((3-(isoquinolin-5-ylamino)pyrrolidin-1-yl)methyl)-1H-indol-1-yl)acetamide]
airway hyperreactivity ([1]; intratracheal once a day, days 27 to 30 (1.091) or 27 to 31): prevention of airway hyperreactivity
IL-1β levels in BALF (LPS-challenged mice): reduction
Percent inhibition, ERK1 (ERK1; 1 μM test compound): 37%
Percent inhibition, ERK1 (ERK1; 10 μM test compound): 4%
Percent inhibition, ERK2 (ERK2; 1 μM test compound): 56%
Percent inhibition, ERK2 (ERK2; 10 μM test compound): 12%

CS(=O)(=O)Nc1cccc(CN2CC[C@@H](Nc3cccc4cnccc34)C2)c1 [Compound 2.038, (R)-N-(3-((3-(isoquinolin-5-ylamino)pyrrolidin-1-yl)methyl)phenyl)methanesulfonamide]
chemotactic response of murine eosinophils (murine eosinophils): inhibited
chemotactic response of human eosinophils (human eosinophils): inhibited
Percentage of carbachol-induced contraction at 1 μM compound, Avg % (rat trachea rings): 57.2%
Percentage of carbachol-induced contraction at 10 μM compound, Avg % (rat trachea rings): 10.2%
IC50 (rat trachea rings): 272 nM
Trachael Ring Contraction, % (rat trachea rings): 57%
log10AUC (penh) ([2]; 15 μmol/kg oral): 2.0813
reduction in airway hyperresponsiveness ([2]; oral doses): statistically significant reduction
concentration of IL-5 in BALF ([3]; 15 μmol/kg/oral on days 27 to 31, FIG. 13): reduced levels
concentration of Eotaxin in BALF ([3]; 15 μmol/kg/oral on days 27 to 31, FIG. 14): reduced levels
concentration of IL-13 in BALF ([3]; 15 μmol/kg/oral on days 27 to 31, FIG. 15): reduced levels
eosinophils per ml of BALF (airway eosinophil infiltration) ([3]; dosed orally to day 31, anti-inflammatory dosing paradigm, FIG. 11): reduced
airway hyperreactivity to methacholine ([1]; oral 15 μMol/kg once a day during days 27 to 31, methacholine on Day 32): prevention of airway hyperreactivity
plasma and lung tissue concentrations after oral dosing ([4]; oral dosing, refers to Table 13 and Table 15): high plasma and lung tissue concentrations

CS(=O)(=O)Nc1cccc(CN2CCC[C@H](Nc3ccc4[nH]ncc4c3)C2)c1 [Compound 1.091, (S)-N-(3-((3-(1H-indazol-5-ylamino)piperidin-1-yl)methyl)phenyl)methanesulfonamide]
Percentage of carbachol-induced contraction at 1 μM compound, Avg % (rat trachea rings): 35.4%
Percentage of carbachol-induced contraction at 10 μM compound, Avg % (rat trachea rings): 14.3%
IC50 (rat trachea rings): 103 nM
Trachael Ring Contraction, % (rat trachea rings): 35%
relaxation of tracheal rings, cytokine-pretreated tissues ([5]; 10 ng/ml IL-1β and 100 ng/ml TNF-α for 18 hours, 300 nM carbachol): fully efficacious
relaxation of tracheal rings, vehicle-pretreated tissues ([5]; 300 nM carbachol): fully efficacious
potency in cytokine-pretreated versus vehicle-pretreated tissues [5]: slightly more potent in cytokine-pretreated tissues
log10AUC (penh) ([2]; 5 μmol/kg intratracheal): 1.8127
log10AUC (penh) ([2]; 15 μmol/kg intraperitoneal): 2.0096
log10AUC (penh) ([2]; 15 μmol/kg oral): 2.2309
reduction in airway hyperresponsiveness ([2]; i.p. route, compared to oral dosing): enhanced reduction
bronchodilatory response ([2]; intratracheal administration): robust bronchodilatory response
reduction in airway hyperresponsiveness ([2]; oral doses): did not yield a significant reduction
eosinophils in BALF ([3]; dosed i.t. to day 30, anti-inflammatory dosing paradigm, FIG. 12): reduction of eosinophils
IL-1β levels in BALF (LPS-challenged mice): reduction
LPS-induced pulmonary neutrophilia influx (LPS-challenged mice; intratracheal dosing one hour prior to LPS challenge, FIG. 17): significant reduction; also recorded: dose-dependent inhibition
oral bioavailability ([4]; oral dosing): poor oral bioavailability
AUC (0-last) [4, 6]: BLQ
Cmax [4, 6]: BLQ
Tmax [4, 6]: BLQ
Vz_F [4, 6]: BLQ
t½ [4, 6]: BLQ
